# Measured values: patent US5438050A, “Indolocarbazole derivatives, processes for their preparation and compositions containing them” (Godecke Aktiengesellschaft, priority 1988, dated 1995)
# Target: protein kinase C
# Assay: enzyme assay of protein kinase C activated with phosphatidylserine and diacylglycerol (according to EP-OS 0,255,126)
# Assay type: biochemical
# Conditions: read-out: 50% inhibition at a concentration of
# Protocol: The compounds according to the invention are potent inhibitors of protein kinases, such as protein kinase C. […] The experiment was carried out according to EP-OS 0,255,126 (inhibition of protein kinase C). Admittedly, indolocarbazoles have already been described as inhibitors of protein kinase C (J Antibiotic 30:275, 1977; Biochem Biophys Res Commun 135:397, 1986). However, it is thereby mainly a question of indolocarbazole-N,N-glycosidesof microbial or semisynthetic origin.
substance,measurement,value
"2 (and 10)-Chloro-12-ethyl-6,7,12,13-tetrahydro-5-oxo-5H-indolo[2,3-a]pyrrolo[3,4-c]carbazole [Example 3.a]",IC50,310 nM
